The record followed here is patent EP4410284A1, “COMPOUND AND METHOD FOR THE TREATMENT OF ZELLWEGER SPECTRUM DISORDER” (Apteeus, priority 2023, dated 2024).

SMILES strings stand for the structures. Structures can show the parent of a compound that is named as a salt.

Common to all, as to type: cell-based, human
One experiment relates to GM16513 cells. Nature of the experiment: Beta-oxidation of d4-C24:0 (LC-MS/MS). The procedure: (§1) Degradation (to d4-C16:0) and elongation (to d4-C26:0 and d4-C28:0) of d4-VLCFA (very long chain fatty acid) in the cells was measured using d4-C24:0 as substrate (D-6145-CDN isotopes). D4-C24:0 was solubilized in culture medium using α-cyclodetrin, with a molar ratio of d4-C24:0:α-cyclodextrin 1:50. Cyclodextrins, which are cyclic oligosaccharides, are commonly used to solubilize fatty acids by complexation, for supplementation of cell culture media, and serve as vehicle to deliver fatty acids to the cells. Cyclodextrins have a polar surface and a hydrophobic cylindrical cavity that can bind and solubilize a wide variety of hydrophobic molecules, such as fatty acids, while remaining soluble in water. The assay was performed in T75 culture flasks for 3 or 10 days. The medium was replaced by fresh medium every 2-3 days and supplemented with d4-C24:0 for the last 3 days. After 3 or 10 days, cells were harvested and lysated in water (100-200 µL) by freeze/thaw cycle and sonication for 5 min. Total proteins were quantified using BCA assay and 100 µg of total proteins were used for each sample.
(§2) After cell lysis, the samples were dried using a rotating evaporator (Genevac EZ-2, SP Scientific), set at 40°C for 2h under vacuum. After evaporation, a hydrolysis mix consisting of 90% acetonitrile and 10% NaOH 1N in water was added to the samples. The samples were incubated for 1h at room temperature under stirring (300 rpm). After hydrolysis, the samples were evaporated using a Genevac device, under vacuum, at 40°C for 2h.
(§3) Derivation of free fatty acids was done using a 2.5 mg/mL Na2CO3 solution in DMF and a 2.5 mg/mL TMAE (trimethylammoniumethyl) reagent solution in DMF. The solutions were mixed in a 1:1 ratio, and 200 µL of the mix was added to dry samples to be derived. For the derivation, the samples were incubated for 3h at 50°C. DMF was then evaporated using a Genevac™ device, under vacuum, at 60°C for 4h.
(§4) Before injection, the samples were solubilized in a 90/10 acetonitrile/isopropanol mixture with 1% HCl. After solubilization, the samples were stirred and centrifuged at 4000 rpm for 20 min at 10°C.
(§5) For the separation of the derived fatty acids by liquid chromatography, a Waters Acquity ultra-performance liquid chromatography (UPLC) system (Acquity I-Class, Waters) was used. […]
(§6) After separation by liquid chromatography, the analytes were subjected to MS analysis using a Waters Xevo TQSmicro system (Waters). […] The molecules were analyzed using MRM (multiple reaction monitoring) mode, with the main daughter ion for each derived fatty acid corresponding to the loss of a trimethylammonium moiety (m/z 59). Derived FAs with a chain length from 16 to 28, with no or one unsaturation, were analyzed. […] The acquired data were analyzed by the Waters MassLynx software.

Experiment [1] deals with PEX405 cells. Nature of the experiment: Catalase import immunofluorescence, high-content screening (% importing cells). Conditions: for Concentration (lower dose leading to the maximum effect) / Importing cells (%): PEX405 (PEX1); for Importing cells (%): at the lower dose leading to the maximum effect (see E12); for % Importing cells: PEX405 cells, 3 days.
For experiment [2], the system named is PEX405 cells. Nature of the experiment: Plasmalogens synthesis (LC-MS/MS). Conditions: treatment over 3 days. The procedure:
The assay was performed in T75 culture flasks for 3 or 10 days. The medium was replaced by fresh medium every 2-3 days. After 3 or 10 days, the cells were harvested and lysated in water (100-200 µL) by freeze/thaw cycle and sonication for 5 min. Total proteins were quantified using BCA assay and 100 µg of total proteins were used for each sample.
After cell lysis, the samples were dried using a rotating evaporator (Genevac EZ-2, SP Scientific), set at 40°C for 2h under vacuum. Then a solution containing water/acetonitrile 20/80 v/v was added to the wells. Before analysis, the samples were centrifuged at 4000 rpm for 20 min at room temperature. For the separation of plasmalogens by liquid chromatography, a Waters Acquity ultra-performance liquid chromatography (UPLC) system (Acquity I-Class, Waters) was used. A Waters Acquity UPLC BEH (Ethylene Bridged Hybrid) C8 column (2.1 × 50mm, particle size 1.7 µm, pore size 130 A, 2.1mm inner diameter) preceded by a metal pre-filter (KrudKatcher Ultra HPLC In-Line Filter, AF0-8497, Phenomenex) was used for separation. The column temperature was maintained at 50°C. The injection volume was 5µL for each analysis. The mobile phase A was composed of water + 0.1% formic acid and the mobile phase B was methanol + 0.1% formic acid. The separation was done using a gradient, with a flow rate set at 0.7 mL/min throughout the separation:
During analysis, the samples were kept at 10°C, and 5 µL of each sample were injected. After separation by liquid chromatography, the analytes were subjected to MS/MS analysis using a Waters Xevo TQSmicro system (Waters). The analytes were ionized using positive electrospray ionization (positive ESI). The molecules were analyzed using MRM mode. The analyzed plasmalogens contained moieties with C16:0, C18:0, C18:1 at the sn-1 position and fatty acid of chain-length 18 to 24 with 1 to 6 unsaturations at the sn-2 position. […] The cellular levels of plasmalogens were calculated using the area of each plasmalogen divided by protein quantity. […] The acquired data were analyzed by the Waters MassLynx software.

Experiment [3] relates to PEX405 cells. Nature of the experiment: Beta-oxidation of d4-C24:0 (LC-MS/MS). The following applies: 3 days of treatment, dose response manner. The method, then: as §1, §2, §3, §4, §5, §6
Where [4] appears, read: 0.5 µM for 3 or 10 days, compared to non-treated cells.

For the compound `O=C(/C=C/c1cccc(S(=O)(=O)Nc2ccccc2)c1)NO` [Belinostat], in the experiment on GM16513 cells (setting [4]), the “relative d4-VLCFA levels (C26, C28)” value was “decrease” and the “shortest d4-FA (C16, C18) levels” value is “increase”. Also, in the experiment with PEX405 cells [1], the “Concentration (lower dose leading to the maximum effect)” value is on record as 2.5 µM and the “Importing cells (%)” value amounted to 41%. In addition, in the experiment with PEX405 cells [1] (1.3 µM), the “% Importing cells” value stood at 52%. For the same compound, in the experiment with PEX405 cells [1] (10 µM), the “% Importing cells” value was found to be 27%.

As to `CCN(CC)Cc1ccc2cc(COC(=O)Nc3ccc(C(=O)NO)cc3)ccc2c1` [Givinostat (hydrochloride monohydrate), Givinostat], the plasmalogen levels entry in the experiment on PEX405 cells [2] is given as “increased”. Moreover, the “d4-C16,C18,C20 and C22 levels” value was “increase” in the experiment on GM16513 cells (3 days of treatment, dose response manner) and “increase” with PEX405 cells [3]. Moreover, the “Concentration (lower dose leading to the maximum effect)” value with PEX405 cells [1] worked out at 0.25 µM. Further, the “Importing cells (%)” value in the experiment on PEX405 cells [1] was 13%. The “% Importing cells” value in the experiment on PEX405 cells [1] (1.3 µM) worked out at 12%; in the experiment with PEX405 cells [1] (10 µM), 6%.
